Literature values as cited in patent US20220241222A1, “ATOMOXETINE HYDROCHLORIDE EXTENDED RELEASE COMPOSITIONS AND METHODS OF USE” (CELISTA PHARMACEUTICALS LLC, priority 2019, published 2022).
Read-outs that look alike come from different tables or passages of the source.

What was measured:
[1] = for mean apparent plasma clearance / mean half-life: oral administration
[2] = oral, immediate release capsules
[3] = CYP2D6 poor metabolizers vs EMs
[4] = primarily as 4-hydroxyatomoxetine-O-glucuronide

In the case of `CNCC[C@@H](Oc1ccccc1C)c1ccccc1.Cl` [Atomoxetine hydrochloride, (−)-N-Methyl-3-phenyl-3-(o-tolyloxy)-propylamine hydrochloride], the absolute bioavailability ([1]; extensive metabolizers) is listed as 63%, the “absorption after oral administration” value ([1]; from immediate release capsules) is listed as “well-absorbed” and the “effect of food on absorption” value [1, 2] is listed as “minimally affected by food”. The estimated half-life [1, 2] was “about 5 hours” and the absolute bioavailability ([1]; poor metabolizers) was 94%.
In the case of `Cc1ccccc1O[C@H](CCN)c1ccccc1` [N-desmethylatomoxetine, N-Desmethylatomoxetine], the “plasma concentrations compared with atomoxetine” value ([1]; circulating metabolite) is given as “lower concentrations”.
For `CNCC[C@@H](Oc1ccccc1C)c1ccccc1` [atomoxetine, (−)-N-Methyl-3-phenyl-3-(o-tolyloxy)-propylamine], the pressor response (patients with central autonomic impairment (multiple system atrophy)) is given as “large pressor responses”, the “seated and standing systolic blood pressure compared to placebo” value (pediatric dose of 18 mg) is given as “significantly increases” and the “AUC of atomoxetine, PMs greater than EMs” value [1, 3] is given as “approximately 10 fold”. For the same molecule, the “Css, max, PMs greater than EMs” value [1, 3] was “about 5 fold”, the “mean apparent plasma clearance” value ([1]; PMs) was 0.5 mL/min/kg and the mean half-life ([1]; PMs) was 21.6 h. The “mean apparent plasma clearance” value ([1]; adult EMs) was 5.83 mL/min/kg, the mean half-life ([1]; adult EMs) was 5.2 h and the “excretion in the feces” value [1, 4] was “less than 17 % of the dose”. The “excretion in the urine” value [1, 4] was “greater than 80 % of the dose”.
